Assays:
HepG2 or HepG2.117 cells = assay: Cytotoxicity, ATPlite Luminescence Assay; assay type: cell-based, human; conditions: 3-days incubation unless marked with *
How it was run: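 Viability after compound treatment is read as ATP luminescence. Exposure lasts 3 or 4 days.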

[1] = Human liver microsome stability; assay type: in vitro ADME; conditions: 1 μM compound, NADPH 1 mM, 37° C., 0-60 min; for HLM Metabolism t1/2: pooled human liver microsomes 0.5 mg/mL
How it was run: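 Single incubations with human liver microsomes started with 1 mM NADPH; samples taken at 0, 5, 10, 20, 40 and 60 min, quenched in acetonitrile (1:3). Cassette LC-MS analysis with internal standard; t½ derived from slope of ln peak-area ratio versus time (k = −gradient).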

[2] = system: HBV (HepG2.117 cell line, inducibly HBV producing); assay: Anti-HBV activity, intracellular HBV DNA by real-time PCR in HepG2.117 cell line; assay type: cell-based, hepatitis B virus; conditions: HepG2.117 cells, 3 days of treatment
How it was run: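 Inducible HBV-producing HepG2.117 line (Tet-off); 3-day exposure to serially diluted compound after induction; real-time PCR of intracellular viral DNA.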

Row | Structure (SMILES) | CC50 (HepG2 or HepG2.117 cells) [µM] | HLM Metabolism t1/2 [1] [h] | EC50 [2] [µM] | half-life at 1 μM ([1]; human, pooled human liver microsomes, pH 7.4, pooled human liver microsomes 0.5 mg/mL, read-out: HLM Metabolism t1/2) [h]
1 | Cc1ccc(C(C)N2C[C@@H](C)n3nc4c(c3C2=O)CN(C(=O)c2ccc(Cl)c(Cl)c2)[C@H](C)C4)nn1 (single isomer, unassigned) [Compound 6B, (3R,7R)-2-(3,4-dichlorobenzoyl)-3,7-dimethyl-9-((S*)-1-(6-methylpyridazin-3-yl)ethyl)-1,2,3,4,8,9-hexahydropyrido[4′,3′:3,4]pyrazolo[1,5-a]pyrazin-10(7H)-one] | > 50 | >3 | 0.065 | –
2 | CNC(=O)C(c1ccc(OC(F)F)cc1)N1C[C@@H](C)n2nc3c(c2C1=O)CN(C(=O)c1ccc(Cl)c(Cl)c1)[C@H](C)C3 (single isomer, unassigned) [Compound 23B, (S*)-2-((3R,7R)-2-(3,4-dichlorobenzoyl)-3,7-dimethyl-10-oxo-1,3,4,7,8,10-hexahydropyrido[4′,3′:3,4]pyrazolo[1,5-a]pyrazin-9(2H)-yl)-2-(4-(difluoromethoxy)phenyl)-N-methylacetamide] | 49.3 | >3 | 0.24 | –
3 | CC(c1cc(F)c(=O)n(C)c1)N1C[C@@H](C)n2nc3c(c2C1=O)CN(C(=O)c1ccc(Cl)c(Cl)c1)[C@H](C)C3 (relative stereo) [Compound 45A, (3R,7R)-2-(3,4-dichlorobenzoyl)-9-((R*)-1-(5-fluoro-1-methyl-6-oxo-,6-dihydropyridin-3-yl)ethyl)-3,7-dimethyl-1,2,3,4,8,9-hexahydropyrido[4′,3′:3,4]pyrazolo [1,5-a]pyrazin-10(7H)-one] | > 50 | >3 | 0.57 | –
4 | CC(c1cc(F)c(=O)n(C2CC2)c1)N1C[C@@H](C)n2nc3c(c2C1=O)CN(C(=O)c1ccc(Cl)c(Cl)c1)[C@H](C)C3 (single isomer, unassigned) [Compound 46B, (3R,7R)-9-((S*)-1-(1-cyclopropyl-5-fluoro-6-oxo-1,6-dihydropyridin-3-yl)ethyl)-2-(3,4-dichlorobenzoyl)-3,7-dimethyl-1,2,3,4,8,9-hexahydropyrido[4′,3′:3,4]pyrazolo[1,5-a]pyrazin-10(7H)-one] | > 50 | >3 | 0.031 | –
5 | CC(c1ccc(C(C)(C)O)nc1)N1C[C@@H](C)n2nc3c(c2C1=O)CN(C(=O)c1cc(C(F)(F)F)c(Cl)cn1)[C@H](C)C3 (single isomer, unassigned) [Compound 58B, (3R,7R)-2-(5-chloro-4-(trifluoromethyl)picolinoyl)-9-((S*)-1-(6-(2-hydroxypropan-2-yl)pyridin-3-yl)ethyl)-3,7-dimethyl-1,2,3,4,8,9-hexahydropyrido[4′,3′:3,4]pyrazolo[1,5-a]pyrazin-10(7H)-one] | > 50 | >3 | 0.19 | –
6 | CC(c1cnc(C(F)(F)F)cn1)N1C[C@@H](C)n2nc3c(c2C1=O)CN(C(=O)c1ccc(Cl)c(Cl)c1)[C@H](C)C3 (single isomer, unassigned) [Compound 7B, (3R,7R)-2-(3,4-dichlorobenzoyl)-3,7-dimethyl-9-((S*)-1-(5-(trifluoromethyl)pyrazin-2-yl)ethyl)-1,2,3,4,8,9-hexahydropyrido[4′,3′:3,4]pyrazolo[1,5-a]pyrazin-10(7H)-one] | 16.9 | >3 | 0.048 | –
7 | CC(c1cnc(C2CC2)cn1)N1C[C@@H](C)n2nc3c(c2C1=O)CN(C(=O)c1ccc(Cl)c(Cl)c1)[C@H](C)C3 (single isomer, unassigned) [Compound 3A, (3R,7R)-9-((R*)-1-(5-cyclopropylpyrazin-2-yl)ethyl)-2-(3,4-dichlorobenzoyl)-3,7-dimethyl-1,2,3,4,8,9-hexahydropyrido[4′,3′:3,4]pyrazolo[1,5-a]pyrazin-10(7H)-one] | 33.7 | – | 0.068 | > 3
8 | CC(c1cnn(C2CC2)c(=O)c1)N1C[C@@H](C)n2nc3c(c2C1=O)CN(C(=O)c1ccc(Cl)c(C(F)(F)F)c1)[C@H](C)C3 (single isomer, unassigned) [Compound 54B, (3R,7R)-2-(4-chloro-3-(trifluoromethyl)benzoyl)-9-((S*)-1-(1-cyclopropyl-6-oxo-1,6-dihydropyridazin-4-yl)ethyl)-3,7-dimethyl-1,2,3,4,8,9-hexahydropyrido[4′,3′: 3,4]pyrazolo[1,5-a]pyrazin-10(7H)-one] | > 50 | 1.95 | 0.01 | –
9 | CNC(=O)c1ccc(C(C)N2C[C@@H](C)n3nc4c(c3C2=O)CN(C(=O)c2ccc(Cl)c(Cl)c2)[C@H](C)C4)cn1 (single isomer, unassigned) [Compound 24B, 5-((S*)-1-((3R,7R)-2-(3,4-dichlorobenzoyl)-3,7-dimethyl-10-oxo-1,3,4,7,8,10-hexahydropyrido[4′,3′:3,4]pyrazolo[1,5-a]pyrazin-9(2H)-yl)ethyl)-N-methylpicolinamide] | > 50 | >3 | 0.02 | –
10 | CC(c1ccnc(OC(F)F)c1)N1C[C@@H](C)n2nc3c(c2C1=O)CN(C(=O)c1ccc(Cl)c(C(F)(F)F)c1)[C@H](C)C3 (single isomer, unassigned) [Compound 50B, (3R,7R)-2-(4-chloro-3-(trifluoromethyl)benzoyl)-9-((S*)-1-(2-(difluoromethoxy)pyridin-4-yl)ethyl)-3,7-dimethyl-1,2,3,4,8,9-hexahydropyrido[4′,3′:3,4]pyrazolo[1,5-a]pyrazin-10(7H)-one] | 10.2 | >3 | 0.024 | –
11 | CC(c1ncc(C(F)(F)F)cn1)N1C[C@@H](C)n2nc3c(c2C1=O)CN(C(=O)c1ccc(Cl)c(Cl)c1)[C@H](C)C3 (single isomer, unassigned) [Compound 40B, (3R,7R)-2-(3,4-dichlorobenzoyl)-3,7-dimethyl-9-((S*)-1-(5-(trifluoromethyl)pyrimidin-2-yl)ethyl)-1,2,3,4,8,9-hexahydropyrido[4′,3′:3,4]pyrazolo[1,5-a]pyrazin-10(7H)-one] | 22.9 | >3 | 0.26 | –
12 | Cc1ncnn1-c1ccc(C(C)N2C[C@@H](C)n3nc4c(c3C2=O)CN(C(=O)c2ccc(Cl)c(Cl)c2)[C@H](C)C4)cn1 (relative stereo) [Compound 25A, (3R,7R)-2-(3,4-dichlorobenzoyl)-3,7-dimethyl-9-((R*)-1-(6-(5-methyl-11H-1,2,4-triazol-1-yl)pyridin-3-yl)ethyl)-1,2,3,4,8,9-hexahydropyrido[4′,3′:3,4]pyrazolo[1,5-a]pyrazin-10(7H)-one] | > 50 | >3 | 0.23 | –
13 | CC(c1ccc(C(C)(C)O)nc1)N1C[C@@H](C)n2nc3c(c2C1=O)CN(C(=O)c1ccc(Cl)c(C(F)(F)F)n1)[C@H](C)C3 (single isomer, unassigned) [Compound 62B, (3R,7R)-2-(5-chloro-6-(trifluoromethyl)picolinoyl)-9-((S*)-1-(6-(2-hydroxypropan-2-yl)pyridin-3-yl)ethyl)-3,7-dimethyl-1,2,3,4,8,9-hexahydropyrido[4′,3′:3,4]pyrazolo[1,5-a]pyrazin-10(7H)-one] | > 50 | 2.07 | 0.068 | –
14 | CC(C)Oc1cc(C(C)N2C[C@@H](C)n3nc4c(c3C2=O)CN(C(=O)c2ccc(Cl)c(C(F)(F)F)c2)[C@H](C)C4)ccn1 (single isomer, unassigned) [Compound 48B, (3R,7R)-2-(4-chloro-3-(trifluoromethyl)benzoyl)-9-((S*)-1-(2-isopropoxypyridin-4-yl)ethyl)-3,7-dimethyl-1,2,3,4,8,9-hexahydropyrido[4′,3′:3,4]pyrazolo[1,5-a]pyrazin-10(7H)-one] | 11.5 | 1.66 | 0.028 | –
15 | Cc1nnn(-c2ccc(C(C)N3C[C@@H](C)n4nc5c(c4C3=O)CN(C(=O)c3ccc(Cl)c(Cl)c3)[C@H](C)C5)cn2)n1 (single isomer, unassigned) [Compound 26B, (3R,7R)-2-(3,4-dichlorobenzoyl)-3,7-dimethyl-9-((S*)-1-(6-(5-methyl-2H-tetrazol-2-yl)pyridin-3-yl)ethyl)-1,2,3,4,8,9-hexahydropyrido[4′,3′:3,4]pyrazolo[1,5-a]pyrazin-10(7H)-one] | > 50 | 1.13 | 0.02 | –
16 | CC(c1ccn(C(C)C)c(=O)c1)N1C[C@@H](C)n2nc3c(c2C1=O)CN(C(=O)c1ccc(Cl)c(C(F)(F)F)c1)[C@H](C)C3 (single isomer, unassigned) [Compound 47B, (3R,7R)-2-(4-chloro-3-(trifluoromethyl)benzoyl)-9-((S*)-1-(1-isopropyl-2-oxo-1,2-dihydropyridin-4-yl)ethyl)-3,7-dimethyl-1,2,3,4,8,9-hexahydropyrido[4′,3′:3,4]pyrazolo[1,5-a]pyrazin-10(7H)-one] | > 50 | 2.4 | 0.016 | –
17 | C[C@@H]1Cc2nn3c(c2CN1C(=O)c1ccc(Cl)c(C(F)(F)F)c1)C(=O)N([C@@H](C)c1ccc([S@@](C)(=O)=NC#N)cc1)C[C@H]3C (relative stereo) [Compound 20C, N—((R*)-(4-((S*)-1-((3R,7R)-2-(4-chloro-3-(trifluoromethyl)benzoyl)-3,7-dimethyl-10-oxo-1,3,4,7,8,10-hexahydropyrido[4′,3′:3,4]pyrazolo[1,5-a]pyrazin-9(2H)-yl)ethyl)phenyl)(methyl)(oxo)-16-sulfaneylidene)cyanamide] | > 50 | 1.02 | 0.016 | –
